Patent US11400104B2, “Skeletal removal of bisphosphonates” (The Regents of the University of California, priority 2016, dated 2022)
“Also recorded” adds a separate entry of the source.

Columns and labels:
[1] = hydroxyapatite (HAP) binding affinity, relative retention times normalized to RIS; conditions: FIG. 7
Description: FIG. 7 is a bar graph showing hydroxyapatite (HAP) binding affinity of Zoledronate (ZOL), ROX-RIS, 5-FAM-ZOL, and AF647-ZOL. Relative retention times were normalized to RIS.
Hydroxyapatite assays indicate that the FL-BPs generally retain substantial affinity for bone mineral that reflect the affinity of the BP component and to a lesser extent, the affinity of the conjugated fluorophore. Hydroxyapatite (Macro-Prep® Ceramic hydroxyapatite Type II […]) was obtained from Bio-Rad Laboratories, Inc. Hercules, Calif. Accurately weighed hydroxyapatite powder (1.4-1.6 mg) was suspended in a 4 mL clear vial containing the appropriate volume of assay buffer (0.05% (wt/vol) Tween20, 10 μM EDTA and 100 mM HEPES pH=7.4) for 3 hours. Hydroxyapatite was then incubated with increasing amounts of FAM-BP and ROX-BP (0, 25, 50, 100, 200, and 300 μM). Samples were gently shaken for 3 hours at 37° C. in appropriate volume of assay buffer (0.05% (wt/vol) Tween20, 10 μM EDTA and 100 mM HEPES pH=7.4). Subsequent to the equilibrium period, the vials were centrifuged at 10,000 rpm for 5 minutes to separate the solids and the supernatant. 0.3 mL of the supernatant was collected and the equilibrium solution concentration is measured by using Shimadzu UV-VIS spectrometer. For the calibration series, FL-BP probe standards were prepared by serial dilution from the stock solution with the same isotherm buffer to give the range from 0 to 400 μM. Calibration curves were constructed using standard solutions of the target FL-BPs. Fluorescent emission can also be used to calculate the binding parameters. Nonspecific binding was measured with a similar procedure in the absence of hydroxyapatite as control. Binding parameters (Kd and Bmax, represent the equilibrium dissociate constant and maximum number of binding sites, respectively) were calculated using the PRISM program (Graphpad, USA). The binding parameters of each compound was measured in 5 independent experiments. […]

mouse maxilla = test: intra-oral injection of AF647-ZOL into maxilla of mice pre-injected IV with FAM-ZOL, fluorescent biophotonics; assay type: in vivo
Description: FIG. 10 are representative images of mice maxilla. AF647-ZOL was orally injected into maxilla of mice pre-injected with 5-FAM-ZOL.
The mouse intra-oral injection protocol was established by using a Hamilton syringe with a 33-gauge needle. Under a surgical microscope, 2 μl solution was injected to the palatal gingiva of left first molar of mouse maxilla. After slow injection, the needle was left in the tissue for 3 minutes and then gently removed.
Using this method, 2 μl of 0 μM, 0.5 μM or 5.0 μM AF647-ZOL was injected to mouse maxillary oral mucosa to mice 6 days after retro-orbital IV injection of 100 μl of 50 μM FAM-ZOL. Mouse tissues were harvested 1 day after oral injection and maxillary bones were subjected to standardized fluorescent biophotonics image obtained using an excitation wavelength of 460 nm and a 515 nm filter (LAS3000, FUJIFILM Corp).

[2] = test system: ZOL-induced mouse BRONJ model; test: ZOL-induced mouse BRONJ/ONJ model (ZOL IV injection followed by maxillary first molar extraction); assay type: in vivo
Description: AF647-ZOL was applied by intra-oral injection or IV injection 1 day prior to tooth extraction. FIG. 16B are images of mouse maxilla and the oral mucosa inflammation and swelling (white dotted lines, left and right panels) with various degrees of jawbone exposure (arrow) at the tooth extraction site of ZOL-treated mice (BRONJ control: n−4). […]
Panel A is a diagram of the experimental time line. Mice treated by IV injection of ZOL (500 μg/kg) received an intra-oral injection of AF647-ZOL, MHDP or ETI (etidronate) one day prior to maxillary 1″ molar extraction. The development of ONJ was evaluated 14 days after tooth extraction.
The C57BL/6J (B6) mice model of ONJ is used. The consistent tissue source in this study is mouse maxillary bone with or without tooth extraction, as well as femurs, mandibles and L4/L5 lumber bones. Tooth extraction animal models for studying wound healing in mice have been well established in our and other laboratories. Systemic bisphosphonate treatment is accomplished by IV injection and the proposed local application of FL-BP is accomplished by intraoral injection to gingival/palatal tissue of mouse maxilla. Mice are subjected to maxillary molar extraction. After anesthesia and vital signs checked, the animal is placed on a bed supporting the isoflurane tubing while keeping the mouth opening. Ophthalmic ointment (bland, e.g., Lacrilube) is applied. The maxillary molar area is wiped with 0.12% Chlorhexidine gluconate solution (Peridex, oral rinse). An autoclaved dental explorer is used as an exodontia elevator after careful reflection of the cervical mucosa to minimize post-extraction discomfort. An autoclaved cotton swab is placed on the extraction socket until the initial blood coagulation is established. Maxillary 1st molar is then extracted unilaterally from so that the remaining untreated side can be utilized for chewing. In our previous experiments, the entire procedure takes about 5-15 minutes. […]
In a preliminary study female B6 mice were injected 500 μg/Kg ZOL (equivalent to 200 μl of 350 μM ZOL) via tail vein and one week later, maxillary left first molar was extracted. […]
Therefore, as schematically shown in FIG. 19B mouse maxillae were treated with ZOL and then either 2 μg of MHDP was orally injected to the site of the molar to be extracted or 100 μg of MHDP was IV injected and the sites of molar extraction of treated mouse maxilla were compared to controls.

mouse femurs = test: AF647-ZOL signal in distant bone (femurs) in the BRONJ mouse model; assay type: in vivo
Description: AF647-ZOL was applied by intra-oral injection or IV injection 1 day prior to tooth extraction. FIG. 16B are images of mouse maxilla and the oral mucosa inflammation and swelling (white dotted lines, left and right panels) with various degrees of jawbone exposure (arrow) at the tooth extraction site of ZOL-treated mice (BRONJ control: n−4).
Mice received a bolus IV injection of ZOL (440 μg/Kg; 294 μM×100 μL=8.0 μg/animal) from retro-orbital venous plexus. […] The AF647-ZOL signal in distant bone was assessed in femurs.

[3] = AF647-ZOL IV 500 μM×100 μL 1 day before extraction, 2 weeks after extraction

influence of the fluorophore on hydroxyapatite affinity [1]: small reduction | AF647 signal at and around the injection site on the palatal bone (mouse maxilla; 2 μl of 0, 0.5 or 5.0 μM intra-oral, harvested 1 day after): dose dependent adsorption
Structure (SMILES): CC1(C)C(C=CC=CC=C2N(CCCS(=O)(=O)O)c3ccc(S(=O)(=O)O)cc3C2(C)CCCCCC(=O)NCC(O)C[n+]2ccn(CC(O)(P(=O)(O)O)P(=O)(O)O)c2)=[N+](CCCS(=O)(=O)O)c2ccc(S(=O)(=O)O)cc21 (centres unmarked) [AF647-ZOL]
displacement of pre-adsorbed FAM-ZOL in maxilla (mouse maxilla; FAM-ZOL 100 μl of 50 μM IV 6 days before AF647-ZOL intra-oral injection, qualitative): pre-adsorbed FAM-ZOL was removed; also recorded: Reduction of FAM-ZOL signal was observed qualitatively | systemic distribution to the distant skeletal system (femur) (mouse maxilla; intra-oral injection): did not result in systemic distribution to the distant skeletal system | histology of maxilla at the tooth extraction site: ONJ-like lesion ([2]; 2 weeks after extraction, one time oral injection in ZOL-mice, FIG. 20): did not develop an ONJ-like lesion | BRONJ-like lesions, jawbone exposure [2, 3]: jawbone exposure was much attenuated; also recorded: attenuated BRONJ-like lesions | oral mucosa inflammation/swelling [2, 3]: some mice which received an AF647-ZOL IV injection showed signs of oral mucosa inflammation/swelling | prevention of BRONJ, tooth extraction wound healing ([2]; AF647-ZOL intra-oral 250 μM×2 μL 1 day before extraction, 2 weeks after extraction): complete prevention of BRONJ; also recorded: excellent tooth extraction wound healing without chronic inflammation or swelling | development of ONJ-like lesions at the tooth extraction sites ([2]; ZOL 500 μg/kg IV, intra-oral injection one day prior to extraction, 14 days after extraction, FIG. 21): appeared to be prevented | AF647-ZOL signal in femurs (mouse femurs; IV injection 500 μM×100 μL): clear AF647-ZOL signal; also recorded: clearly observed | AF647-ZOL signal in femurs (mouse femurs; intra-oral injection 250 μM×2 μL): not and did not result in a detectable fluorescent signal
